Measured values from US20110305707A1, “COMPOSITIONS AND METHODS FOR TREATING CANCER” (THE CLEVELAND CLINIC FOUNDATION, priority 2010, published 2011).

How the values were obtained:
[1] = Plasma levels of apoA1 after subcutaneous apoA1 injection every other day; assay type: in vivo, mice; settings: apoA1 s.c. every other day, steady state, days 22-24
Experimental: In another part of this Example, apoA1 was injected subcutaneously into mice every other day and the plasma levels of apoA1 at steady state (shown in FIG. 9 for says 22-24) were monitored. […] This approximates the plasma levels of apoA1 in humans.

malignant melanoma = assay: Malignant melanoma animal model, apoA1 given as therapy after tumor growth is established; assay type: in vivo, mice
Experimental: In another part of this Example, the impact of giving apoA1 as a therapy is evaluated after the tumor growth is established and metastases are detectable. The same malignant melanoma animal model is employed. ApoA1 injections were started one week after tumor injection. […] In the insets for both 16A and 16B, note that apoA1 injections actually shrink peak tumor volume by ˜50% within 1-2 weeks of therapy. A similar ˜50% reduction in peak metastases burden is also noted in the apoA1 treated mice.
In similar experiments, ApoA2 was given in the same dosing strategy as apoA1 vs normal saline (S) control.

[2] = test system: F10L_B16 Melanoma Tumor cells; assay: F10L_B16 melanoma in apoA1-KO mice given human ApoA1 or saline throughout the study (xenogen imaging, survival); assay type: in vivo; settings: vs normal saline
Experimental: In another part of this Example, human ApoA1 or normal saline (control) was given to apoA1-KO mice throughout duration of the study following the dosing schedule of 15 mg s.c. QOD. 10^5 F10L_B16 Melanoma Tumor cells were injected subcutaneously into the dorsum of the mice. Total tumor burden and metastases were quantified by xenogen imaging. […] Images of the mice 16 days post tumor injection are shown in FIG. 11, which show much greater tumor growth in the saline treated mice. Images of the mice 21 days post tumor injection are shown in FIG. 12, which show much greater tumor growth in the saline treated mice.

[3] = ApoA1 injections started one week after tumor injection
[4] = ApoA2 given in the same dosing strategy, vs normal saline
[5] = 15 mg s.c. QOD throughout study

## apolipoprotein A-1 [ApoA1]
[1]
  plasma level of apoA1: 75 to 175 mg/dL
Malignant melanoma; [3]
  metastases formation: dramatically reduced
  overall tumor growth: dramatically reduced
Malignant melanoma; [4]
  potency at reducing cancer growth compared with ApoA2: markedly more potent
  potency at reducing metastases formation compared with ApoA2: markedly more potent
Malignant melanoma; injections started one week after tumor injection
  reduction in peak metastases burden: ~50%
Malignant melanoma; injections started one week after tumor injection, within 1-2 weeks of therapy
  shrinkage of peak tumor volume: ~50%
[2]; [5]
  metastases formation (xenogen imaging): blocks tumor growth and metastases formation
  tumor growth (total tumor burden, xenogen imaging): blocks tumor growth
[2]; 15 mg s.c. QOD
  survival: much greater survival
